Measurements as given in US11390609B2, “Rho-associated protein kinase inhibitor, pharmaceutical composition comprising same, and preparation method and use thereof” (BEIJING TIDE PHARMACEUTICAL CO., LTD., priority 2017, dated 2022).

How the values were obtained:
ROCK1 = ROCK1 (Homo sapiens (Human), UniProt Q13464); assay: ROCK1 kinase IC50 assay (biological test method similar to the ROCK2 assay); format: biochemical
In short: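 Compound dilution series (9 concentrations, top solution 10000 nM, DMSO-containing buffer) incubated 2 h at room temperature with kinase, STK-S2 substrate and ATP (5× working solutions of 1.5 µM each). Phosphorylation detected by HTRF (665/615 nm emission ratio) after 1 h; inhibition relative to full-reaction and kinase-free wells, fitted for IC50.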

ROCK2 = ROCK2 (Homo sapiens, UniProt O75116); assay: ROCK2 kinase IC50 assay (CISBIO HTRF KinEASE-STK S2 kit); format: biochemical; details: incubated at room temperature for 2 hours
Description: The kinase IC50 was determined by a commercialized CISBIO kinase detection kit, HTRF KinEASE-STK S2 kit (62ST2PEC). ROCK2 (01-119) employed in the reaction was purchased from Carna Biosciences.
Before the assay, the following working solutions as needed were formulated with corresponding reagents according to the instruction of the kinase detection kit: 1×kinase buffer, 5×STK-52 substrate working solution (1.5 μM) and 5×ATP working solution (1.5 μM), 5×ROCK2 kinase working solution, 4×Streptavidin-XL665 working solution, and 4×STK-Ab-Cryptate 2 detection solution. Then the assay was performed according to the following procedure.
A solution of a compound at a concentration of 10000 nM was prepared with the 1×kinase buffer containing 2.5% DMSO. Gradient dilution of the solution of the compound was performed with the kinase buffer containing DMSO, so as to obtain solutions of a test compound at 9 different concentrations. In addition to wells of test compounds, a positive well (containing all the reagents except the compound) and a negative well (containing all the reagents except the test compound and kinase) were set. Except for the control wells (positive and negative wells), a solution of a test compound (4 μL) was added to each of the reaction wells, and a solution of 2.5% DMSO was added to the control wells. Then the substrate ([…], 2 μL. 5×STK-S2 substrate working solution) was added to each of the reaction wells. The 5×ROCK2 kinase working solution (2 μL, containing 1.4 ng ROCK2 kinase) was added to each of the reaction wells except for the negative well, the volume of which was made up with the 1×kinase buffer (2 μL). The 5×ATP working solution (2 μL) was added to each of the reaction wells, and the mixtures were incubated at room temperature for 2 hours. After the kinase reaction was complete, the 4×Streptavidin-XL665 working solution was added to each of the reaction wells, the solutions were mixed, followed by immediate addition of the 4×STK-Ab-Cryptate 2 detection solution (5 μL), and the mixtures were incubated at room temperature for 1 hour. The fluorescence signal was read on ENVISION (Perkinelmer) (excitation wavelength: 320 nm, and emission wavelength: 665 nm and 615 nm). The inhibitory rate in each well was calculated based on the fluorescence intensity value: ER (Emission Ratio)=(fluorescence intensity at 665 nm/fluorescence intensity at 615 nm); inhibitory rate=(ERpositive−ERtest compound)/(ERpositive−ERnegative)*100%. Curves were plotted and fitted to obtain the median inhibitory concentration (IC50) of each teat compound with the PRISM 5.0 software.

Chain of ROCK1 (Q13464 whole entry, species assumed): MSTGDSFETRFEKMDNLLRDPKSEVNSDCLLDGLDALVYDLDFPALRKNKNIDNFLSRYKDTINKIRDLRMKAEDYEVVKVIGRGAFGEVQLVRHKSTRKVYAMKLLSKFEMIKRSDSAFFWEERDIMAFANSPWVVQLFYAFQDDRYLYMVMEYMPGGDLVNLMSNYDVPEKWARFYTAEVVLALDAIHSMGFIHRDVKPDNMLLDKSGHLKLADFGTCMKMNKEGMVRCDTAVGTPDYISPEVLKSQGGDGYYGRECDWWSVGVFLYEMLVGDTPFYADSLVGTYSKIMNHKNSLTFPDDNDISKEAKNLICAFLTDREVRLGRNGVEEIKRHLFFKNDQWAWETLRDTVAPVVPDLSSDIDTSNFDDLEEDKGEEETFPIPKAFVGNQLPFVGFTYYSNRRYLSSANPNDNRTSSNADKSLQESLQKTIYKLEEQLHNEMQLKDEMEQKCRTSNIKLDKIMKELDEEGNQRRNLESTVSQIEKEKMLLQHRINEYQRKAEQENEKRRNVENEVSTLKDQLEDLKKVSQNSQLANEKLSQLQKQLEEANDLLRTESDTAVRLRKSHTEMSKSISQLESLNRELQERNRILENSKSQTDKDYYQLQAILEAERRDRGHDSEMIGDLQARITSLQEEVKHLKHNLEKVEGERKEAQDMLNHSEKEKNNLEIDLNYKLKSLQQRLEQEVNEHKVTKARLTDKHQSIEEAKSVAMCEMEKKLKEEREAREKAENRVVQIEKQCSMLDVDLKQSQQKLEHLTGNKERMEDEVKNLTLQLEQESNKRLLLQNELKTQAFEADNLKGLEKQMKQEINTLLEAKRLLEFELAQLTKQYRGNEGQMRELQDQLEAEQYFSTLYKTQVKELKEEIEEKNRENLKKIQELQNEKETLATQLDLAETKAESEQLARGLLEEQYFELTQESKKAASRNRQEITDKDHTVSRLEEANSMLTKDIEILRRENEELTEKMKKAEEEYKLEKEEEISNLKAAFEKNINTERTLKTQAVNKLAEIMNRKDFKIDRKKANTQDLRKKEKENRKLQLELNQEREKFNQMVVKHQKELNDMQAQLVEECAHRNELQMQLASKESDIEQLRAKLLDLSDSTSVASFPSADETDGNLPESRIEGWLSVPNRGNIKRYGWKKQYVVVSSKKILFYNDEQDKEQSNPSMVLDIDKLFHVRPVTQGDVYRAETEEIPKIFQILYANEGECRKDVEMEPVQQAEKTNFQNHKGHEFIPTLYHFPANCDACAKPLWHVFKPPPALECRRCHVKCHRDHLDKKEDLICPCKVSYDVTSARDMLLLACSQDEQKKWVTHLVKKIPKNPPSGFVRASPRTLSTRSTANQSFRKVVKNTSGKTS

SMILES	IC50 (ROCK1)	IC50 (ROCK2)
Cn1c(C(=O)N2CC(F)(CF)C2)cc2ccc(-c3nccc(Nc4ccc(-c5cn[nH]c5)cc4)n3)cc21 [TDI01524, (6-(4-((4-(1H-pyrazol-4-yl)phenyl)amino)pyrimidin-2-yl)-1-methyl-1H-indol-2-yl)(3-fluoro-3-(fluoromethyl)azetidin-1-yl)methanone]	1420 nM	30 nM
O=C(OC1CC(F)(F)C1)N1CCc2cc(-c3nccc(Nc4ccc(-c5cn[nH]c5)cc4)n3)ccc2C1 [TDI01621, 3,3-difluorocyclobutyl 6-(4-((4-(1H-pyrazol-4-yl)phenyl)amino)pyrimidin-2-yl)-3,4-dihydroisoquinoline-2(1H)-carboxylate]	> 10000 nM	219 nM
CN(CC(F)(F)F)C(=O)c1cc2cc(-c3nccc(Nc4ccc(-c5cn[nH]c5)cc4)n3)ccc2[nH]1 [TDI01429, 5-(4-((4-(1H-pyrazol-4-yl)phenyl)amino)pyrimidin-2-yl)-N-methyl-N-(2,2,2-trifluoroethyl)-1H-indole-2-carboxamide]	> 10000 nM	99 nM
O=C(c1cc2ccc(-c3nccc(Nc4ccc(-c5cn[nH]c5)cc4)n3)cc2[nH]1)N1C[C@@H](F)[C@@H](F)C1 [TDI01477, (6-(4-((4-(1H-pyrazol-4-yl)phenyl)amino)pyrimidin-2-yl)-1H-indol-2-yl)((3S,4R)-3,4-difluoropyrrolidin-1-yl)methanone]	1130 nM	47 nM
CC1COCCN1C(=O)c1cc2ccc(-c3nccc(Nc4ccc(-c5cn[nH]c5)cc4)n3)cc2[nH]1 (stereo not drawn) [TDI01431, (6-(4-((4-(1H-pyrazol-4-yl)phenyl)amino)pyrimidin-2-yl)-1H-indol-2-yl)(3-methylmorpholino) methanone]	4340 nM	203 nM
CN(C)C(=O)N1Cc2ccc(-c3nc(Nc4ccc(-c5cn[nH]c5)cc4)c4occc4n3)cc2C1 [TDI01974, 5-(4-((4-(1H-pyrazol-4-yl)phenyl)amino)furo[3,2-d]pyrimidin-2-yl)-N,N-dimethylisoindoline-2-carboxamide]	> 10000 nM	186 nM
Cn1c(C(=O)N2CCC3(C2)CC3(F)F)cc2ccc(-c3nccc(Nc4ccc(-c5cn[nH]c5)cc4)n3)cc21 (stereo not drawn) [TDI01513, (6-(4-{(4-(1H-pyrazol-4-yl)phenyl)amino)pyrimidin-2-yl)-1-methyl-1H-indol-2-yl)(1,1-difluoro-5-azaspiro[2.4]heptan-5-yl)methanone]	7420 nM	269 nM
O=C(C1CC(F)(F)C1)N1Cc2ccc(-c3nc(Nc4ccc(-c5cn[nH]c5)cc4)c4cc[nH]c4n3)cc2C1 [TDI01565, (5-(4-((4-(1H-pyrazol-4-yl)phenyl)amino)-7H-pyrrolo[2,3-d]pyrimidin-2-yl)isoindolin-2-yl)(3,3-difluorocyclobutyl)methanone]	> 10000 nM	57 nM
Cn1c(C(=O)N2C[C@@H](F)[C@H](Br)C2)cc2ccc(-c3nccc(Nc4ccc(-c5cn[nH]c5)cc4)n3)cc21 [TDI01519, (6-(4-((4-(1H-py razol-4-yl)phenyl)amino)pyrimidin-2-yl)-1-methyl-1H-indol-2-yl)((3R,4R)-3-bromo-4-fluoropyrrolidin-1-yl)methanone]	5240 nM	102 nM
COc1cc(Nc2ccnc(-c3ccc4cc(C(=O)N(C)C)[nH]c4c3)n2)ccc1-c1cn[nH]c1 [TDI01832, 6-(4-((3-methoxy-4-(1H-pyrazol-4-yl)phenyl)ami-no)pyrimidin-2-yl)-N, N-dimethyl-1H-indole-2-carboxamide]	> 10000 nM	167 nM
CC(C)NC(=O)N1Cc2ccc(-c3nc(Nc4ccc(-c5cn[nH]c5)cc4)c4occc4n3)cc2C1 [TDI01861, 5-(4-((4-(1H-pyrazol-4-yl)phenyl)amino)furo[3,2-d]pyrimidin-2-yl)-N-isopropylisoindoline-2-carboxamide]	> 10000 nM	41 nM
O=C(c1cc2ccc(-c3nc(Nc4ccc(-c5cn[nH]c5)cc4)c4sccc4n3)cc2[nH]1)N1CCOCC1 [TDI01450, (6-(4-((4-(1H-pyrazol-4-yl)phenyl)amino)thieno [3,2-d]pyrimidin-2-yl)-1H-indol-2-yl)(morpholino)methanone]	> 10000 nM	453 nM
O=C(c1cc2ccc(-c3ncnc(Nc4ccc(-c5cn[nH]c5)cc4)n3)cc2[nH]1)N1CC(F)(F)C1 [TDI01581, (6-(4-((4-(1H-pyrazol-4-yl)phenyl)amino)-1,3,5-triazin-2-yl)-1H-indol-2-yl)(3,3-difluoroazetidin-1-yl)methanone]	> 10000 nM	28 nM
c1ccc2oc(-c3cc4ccc(-c5nccc(Nc6ccc7[nH]ncc7c6)n5)cc4[nH]3)nc2c1 [TDI01816, N-(2-(2-(benzo[d]oxazol-2-yl)-1H-indol-6-yl]pyrimidin-4-yl)-1H-indazol-5-amine]	6010 nM	111 nM
CN1CCC(OC(=O)N2Cc3ccc(-c4nccc(Nc5ccc(-c6cn[nH]c6)cc5)n4)cc3C2)C1 (stereo not drawn) [TDI01552, 1-methylpyrrolidin-3-yl5-(4-((4-(1H-pyrazol-4-yl)phenyl)amino)pyrimidin-2-yl)isoindoline-2-carboxylate]	2950 nM	51 nM
O=C(C1CC(F)(F)C1)N1CCc2cc(-c3ncc(F)c(Nc4ccc(-c5cn[nH]c5)cc4)n3)ccc2C1 [TDI01596, (6-(4-((4-(1H-pyrazol-4-yl)phenyl)amino)-5-fluoropyrimidin-2-yl)-3,4-dihydroisoquinolin-2(1H)-yl)(3,3-difluorocyclobutyl)methanone]	> 10000 nM	275 nM
CC1(C(=O)N2Cc3ccc(-c4ncc(F)c(Nc5ccc(-c6cn[nH]c6)cc5)n4)cc3C2)CC(F)(F)C1 [TDI01628, (5-(4-((4-(1H-pyrazol-4-yl)phenyl)amino)-5-fluoropyrimidin-2-yl)isoindolin-2-yl)(3,3-difluoro-1-methylcyclobutyl) methanone]	> 10000 nM	28 nM
O=C(NC1CCCN(c2ccncc2)C1)c1cc2ccc(-c3nccc(Nc4ccc(-c5cn[nH]c5)cc4)n3)cc2[nH]1 (stereo not drawn) [TDI01882, 6-(4-((4-(1H-pyrazol-4-yl)phenyl)-amino)-pyrimidin-2-yl)-N-(1-(pyridin-4-yl)piperidin-3-yl)-1H-indole-2-carboxamide]	139 nM	8 nM
c1cnc(-c2cc3ccc(-c4nccc(Nc5ccc(-c6cn[nH]c6)cc5)n4)cc3[nH]2)nc1 [TDI01870, N-(4-(1H-pyrazol-4-yl)phenyl)-2-(2-(pyrimidin-2-yl)-1H-indol-6-yl)pyrimidin-4-amine]	> 10000 nM	46 nM
Cn1c(C(=O)N2CC(C(F)(F)F)C2)cc2ccc(-c3nccc(Nc4ccc(-c5cn[nH]c5)cc4)n3)cc21 [TDI01538, (6-(4-((4-(1H-pyrazol-4-yl)phenyl)amino)pyrimidin-2-yl)-1-methyl-1H-indol-2-yl)(3-(trifluoromethyl)azetidin-1-yl)methanone]	4930 nM	198 nM
CN(CC(F)(F)F)C(=O)c1cc2ccc(-c3nccc(Nc4ccc(-c5cn[nH]c5)cc4)n3)cc2s1 [TDI01428, 6-(4-((4-(1H-pyrazol-4-yl)phenyl)-amino)-pyrimidin-2-yl)-N-methyl-N-(2,2,2-trifluoroethyl)-benzo[b]-thiophene-2-carboxamide]	> 10000 nM	69 nM
CC(=O)N1Cc2nc(-c3ccc4c(c3)CN(C(=O)C3CC(F)(F)C3)C4)nc(Nc3ccc(-c4cn[nH]c4)cc3)c2C1 [TDI01587, 1-(4-((4-(1H-pyrazol-4-yl)phenyl)amino)-2-(2-(3,3-difluorocyclobutane-1-carbonyl)isoindolin-5-yl)-5,7-dihydro-6H-pyrrolo[3,4-d]pyrimidin-6-yl)ethan-1-one]	> 10000 nM	25 nM
c1ccc2sc(-c3cc4ccc(-c5nccc(Nc6ccc7[nH]ncc7c6)n5)cc4[nH]3)nc2c1 [TDI01881, N-(2-(2-(benzo[d]thiazol-2-yl)-1H-indol-6-yl)pyrimidin-4-yl)-1H-indazol-5-amine]	> 10000 nM	161 nM
O=C(c1cc2ccc(-c3nccc(Nc4ccc(-c5cn[nH]c5)cc4)n3)cc2[nH]1)N1CCS(=O)(=O)CC1 [TDI01497, (6-(4-((4-(1H-pyrazol-4-yl)phenyl)amino)pyrimidin-2-yl)-1H-indol-2-yl)(1,1-dioxidothiomorpholino) methanone]	> 10000 nM	319 nM
